Laboratory results from the supplement of paper PMC10307832.

Legend:
Test in all cases: relative viability (nuclei count vs DMSO), 5 days (fraction); higher = more cells survive
[1] = test system: A-427
How it was run: (§1)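 Values are medians from duplicate plates. Each reflects relative viability, defined as the nuclei count of treated wells over that of vehicle wells. Lung cancer cell lines in 1536-well plates were pin-tool dosed one day after seeding with one drug alone or with a fixed anchor-drug dose plus five library-drug doses (not always all listed) in √10 steps, then fixed, stained and imaged at 4× after 5 days.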

[2] = test system: EPLC-272H
How it was run: as §1

[3] = test system: HCC-366
How it was run: as §1

[4] = test system: HCC-78
How it was run: as §1

[5] = test system: HOP-62
How it was run: as §1

[6] = test system: LC-2-ad
How it was run: as §1

[7] = test system: LU99A
How it was run: as §1

[8] = test system: LXF-289
How it was run: as §1

[9] = test system: NCI-H1666
How it was run: as §1

[10] = test system: NCI-H1792
How it was run: as §1

[11] = test system: NCI-H1793
How it was run: as §1

[12] = test system: NCI-H1915
How it was run: as §1

[13] = test system: NCI-H1944
How it was run: as §1

[14] = test system: NCI-H2085
How it was run: as §1

[15] = test system: NCI-H2170
How it was run: as §1

[16] = test system: NCI-H358
How it was run: as §1

[17] = test system: NCI-H460
How it was run: as §1

[18] = test system: SW 900
How it was run: as §1

[19] = test system: COR-L 105
How it was run: as §1

[20] = test system: NCI-H2009
How it was run: as §1

[21] = test system: SK-LU-1
How it was run: as §1

[22] = test system: UMC-11
How it was run: as §1

O=c1cc(N2CCOCC2)oc2c(-c3cccc4c3sc3ccccc34)cccc12 + NC(=O)Nc1cc(-c2cccc(F)c2)sc1C(=O)N[C@H]1CCCNC1 [AZD7762] (partner 0.2 µM)
relative viability ([1]; first compound 0.01 µM): 0.731
relative viability ([1]; first compound 0.03162 µM): 0.767
relative viability ([1]; first compound 0.1 µM): 0.529
relative viability ([1]; first compound 0.3162 µM): 0.795
relative viability ([1]; first compound 1 µM): 0.735
relative viability ([2]; first compound 0.01 µM): 0.244
relative viability ([2]; first compound 0.03162 µM): 0.282
relative viability ([2]; first compound 0.1 µM): 0.12
relative viability ([2]; first compound 0.3162 µM): 0.31
relative viability ([2]; first compound 1 µM): 0.211
relative viability ([3]; first compound 0.01 µM): 0.247
relative viability ([3]; first compound 0.03162 µM): 0.286
relative viability ([3]; first compound 0.1 µM): 0.127
relative viability ([3]; first compound 0.3162 µM): 0.287
relative viability ([3]; first compound 1 µM): 0.288
relative viability ([4]; first compound 0.01 µM): 0.629
relative viability ([4]; first compound 0.03162 µM): 0.616
relative viability ([4]; first compound 0.1 µM): 0.354
relative viability ([4]; first compound 0.3162 µM): 0.615
relative viability ([4]; first compound 1 µM): 0.5
relative viability ([5]; first compound 0.01 µM): 0.514
relative viability ([5]; first compound 0.03162 µM): 0.574
relative viability ([5]; first compound 0.1 µM): 0.188
relative viability ([5]; first compound 0.3162 µM): 0.745
relative viability ([5]; first compound 1 µM): 0.689
relative viability ([6]; first compound 0.01 µM): 0.815
relative viability ([6]; first compound 0.03162 µM): 0.777
relative viability ([6]; first compound 0.1 µM): 0.831
relative viability ([6]; first compound 0.3162 µM): 0.817
relative viability ([6]; first compound 1 µM): 0.785
relative viability ([7]; first compound 0.01 µM): 0.37
relative viability ([7]; first compound 0.03162 µM): 0.415
relative viability ([7]; first compound 0.1 µM): 0.438
relative viability ([7]; first compound 0.3162 µM): 0.314
relative viability ([7]; first compound 1 µM): 0.384
relative viability ([8]; first compound 0.01 µM): 1.11
relative viability ([8]; first compound 0.03162 µM): 1.08
relative viability ([8]; first compound 0.1 µM): 0.75
relative viability ([8]; first compound 0.3162 µM): 1.2
relative viability ([8]; first compound 1 µM): 1.21
relative viability ([9]; first compound 0.01 µM): 0.842
relative viability ([9]; first compound 0.03162 µM): 0.886
relative viability ([9]; first compound 0.1 µM): 0.797
relative viability ([9]; first compound 0.3162 µM): 0.675
relative viability ([9]; first compound 1 µM): 0.7
relative viability ([10]; first compound 0.01 µM): 0.75
relative viability ([10]; first compound 0.03162 µM): 0.682
relative viability ([10]; first compound 0.3162 µM): 0.673
relative viability ([10]; first compound 1 µM): 0.733
relative viability ([11]; first compound 0.01 µM): 0.593
relative viability ([11]; first compound 0.03162 µM): 0.38
relative viability ([11]; first compound 0.1 µM): 0.233
relative viability ([11]; first compound 0.3162 µM): 0.505
relative viability ([11]; first compound 1 µM): 0.464
relative viability ([12]; first compound 0.01 µM): 0.763
relative viability ([12]; first compound 0.03162 µM): 0.725
relative viability ([12]; first compound 0.1 µM): 0.731
relative viability ([12]; first compound 0.3162 µM): 0.658
relative viability ([12]; first compound 1 µM): 0.675
relative viability ([13]; first compound 0.01 µM): 0.541
relative viability ([13]; first compound 0.03162 µM): 0.527
relative viability ([13]; first compound 0.1 µM): 0.481
relative viability ([13]; first compound 0.3162 µM): 0.528
relative viability ([13]; first compound 1 µM): 0.438
relative viability ([14]; first compound 0.01 µM): 1
relative viability ([14]; first compound 0.03162 µM): 1.02
relative viability ([14]; first compound 0.1 µM): 0.887
relative viability ([14]; first compound 0.3162 µM): 1.05
relative viability ([14]; first compound 1 µM): 1.01
relative viability ([15]; first compound 0.01 µM): 0.78
relative viability ([15]; first compound 0.03162 µM): 0.945
relative viability ([15]; first compound 0.1 µM): 0.734
relative viability ([15]; first compound 0.3162 µM): 0.842
relative viability ([15]; first compound 1 µM): 0.852
relative viability ([16]; first compound 0.01 µM): 0.49
relative viability ([16]; first compound 0.03162 µM): 0.517
relative viability ([16]; first compound 0.1 µM): 0.354
relative viability ([16]; first compound 0.3162 µM): 0.445
relative viability ([16]; first compound 1 µM): 0.519
relative viability ([17]; first compound 0.01 µM): 0.518
relative viability ([17]; first compound 0.03162 µM): 0.622
relative viability ([17]; first compound 0.1 µM): 0.451
relative viability ([17]; first compound 0.3162 µM): 0.589
relative viability ([17]; first compound 1 µM): 0.636
relative viability ([18]; first compound 0.03162 µM): 0.748
relative viability ([18]; first compound 0.1 µM): 0.378
relative viability ([18]; first compound 0.3162 µM): 0.702
relative viability ([18]; first compound 1 µM): 0.497

CCN(CC)CCCCNc1ncc2cc(-c3cc(OC)cc(OC)c3)c(NC(=O)NC(C)(C)C)nc2n1 + CCNC(=O)c1noc(-c2cc(C(C)C)c(O)cc2O)c1-c1ccc(CN2CCOCC2)cc1 [Luminespib] (partner 0.01 µM)
relative viability ([1]; first compound 0.01 µM): 1.01
relative viability ([1]; first compound 0.03162 µM): 1.01
relative viability ([1]; first compound 0.1 µM): 1.09
relative viability ([1]; first compound 0.3162 µM): 1.03
relative viability ([1]; first compound 1 µM): 0.872
relative viability ([19]; first compound 0.01 µM): 0.909
relative viability ([19]; first compound 0.03162 µM): 0.698
relative viability ([19]; first compound 0.1 µM): 0.73
relative viability ([19]; first compound 0.3162 µM): 0.795
relative viability ([19]; first compound 1 µM): 0.68
relative viability ([2]; first compound 0.01 µM): 0.26
relative viability ([2]; first compound 0.03162 µM): 0.266
relative viability ([2]; first compound 0.1 µM): 0.204
relative viability ([2]; first compound 0.3162 µM): 0.219
relative viability ([2]; first compound 1 µM): 0.329
relative viability ([5]; first compound 0.01 µM): 1.12
relative viability ([5]; first compound 0.03162 µM): 0.986
relative viability ([5]; first compound 0.1 µM): 1.02
relative viability ([5]; first compound 0.3162 µM): 0.961
relative viability ([5]; first compound 1 µM): 0.888
relative viability ([6]; first compound 0.01 µM): 0.971
relative viability ([6]; first compound 0.03162 µM): 1.12
relative viability ([6]; first compound 0.1 µM): 1.21
relative viability ([6]; first compound 0.3162 µM): 1.04
relative viability ([6]; first compound 1 µM): 1.11
relative viability ([7]; first compound 0.01 µM): 0.301
relative viability ([7]; first compound 0.03162 µM): 0.251
relative viability ([7]; first compound 0.1 µM): 0.197
relative viability ([7]; first compound 0.3162 µM): 0.25
relative viability ([7]; first compound 1 µM): 0.27
relative viability ([8]; first compound 0.01 µM): 0.727
relative viability ([8]; first compound 0.03162 µM): 0.668
relative viability ([8]; first compound 0.1 µM): 0.699
relative viability ([8]; first compound 0.3162 µM): 0.801
relative viability ([8]; first compound 1 µM): 0.577
relative viability ([9]; first compound 0.01 µM): 0.944
relative viability ([9]; first compound 0.03162 µM): 0.971
relative viability ([9]; first compound 0.1 µM): 1.04
relative viability ([9]; first compound 0.3162 µM): 1.02
relative viability ([9]; first compound 1 µM): 0.794
relative viability ([10]; first compound 0.01 µM): 0.38
relative viability ([10]; first compound 0.03162 µM): 0.388
relative viability ([10]; first compound 0.1 µM): 0.536
relative viability ([10]; first compound 0.3162 µM): 0.37
relative viability ([10]; first compound 1 µM): 0.282
relative viability ([11]; first compound 0.01 µM): 0.345
relative viability ([11]; first compound 0.03162 µM): 0.198
relative viability ([11]; first compound 0.1 µM): 0.166
relative viability ([11]; first compound 0.3162 µM): 0.157
relative viability ([11]; first compound 1 µM): 0.156
relative viability ([12]; first compound 0.01 µM): 0.885
relative viability ([12]; first compound 0.03162 µM): 0.863
relative viability ([12]; first compound 0.1 µM): 1.02
relative viability ([12]; first compound 0.3162 µM): 0.932
relative viability ([12]; first compound 1 µM): 0.711
relative viability ([13]; first compound 0.01 µM): 0.705
relative viability ([13]; first compound 0.03162 µM): 0.747
relative viability ([13]; first compound 0.1 µM): 0.762
relative viability ([13]; first compound 0.3162 µM): 0.822
relative viability ([13]; first compound 1 µM): 0.603
relative viability ([20]; first compound 0.01 µM): 1.15
relative viability ([20]; first compound 0.03162 µM): 0.983
relative viability ([20]; first compound 0.1 µM): 1.13
relative viability ([20]; first compound 0.3162 µM): 1.1
relative viability ([20]; first compound 1 µM): 0.931
relative viability ([14]; first compound 0.01 µM): 0.419
relative viability ([14]; first compound 0.03162 µM): 0.424
relative viability ([14]; first compound 0.1 µM): 0.402
relative viability ([14]; first compound 0.3162 µM): 0.405
relative viability ([14]; first compound 1 µM): 0.458
relative viability ([15]; first compound 0.01 µM): 0.446
relative viability ([15]; first compound 0.03162 µM): 0.857
relative viability ([15]; first compound 0.1 µM): 0.668
relative viability ([15]; first compound 0.3162 µM): 0.801
relative viability ([15]; first compound 1 µM): 0.937
relative viability ([16]; first compound 0.01 µM): 0.429
relative viability ([16]; first compound 0.03162 µM): 0.193
relative viability ([16]; first compound 0.1 µM): 0.348
relative viability ([16]; first compound 0.3162 µM): 0.503
relative viability ([16]; first compound 1 µM): 0.347
relative viability ([17]; first compound 0.01 µM): 0.0378
relative viability ([17]; first compound 0.03162 µM): 0.0357
relative viability ([17]; first compound 0.1 µM): 0.0341
relative viability ([17]; first compound 0.3162 µM): 0.0358
relative viability ([17]; first compound 1 µM): 0.0473
relative viability ([21]; first compound 0.01 µM): 0.199
relative viability ([21]; first compound 0.03162 µM): 0.197
relative viability ([21]; first compound 0.1 µM): 0.197
relative viability ([21]; first compound 0.3162 µM): 0.236
relative viability ([21]; first compound 1 µM): 0.168
relative viability ([18]; first compound 0.01 µM): 0.172
relative viability ([18]; first compound 0.03162 µM): 0.182
relative viability ([18]; first compound 0.3162 µM): 0.15
relative viability ([18]; first compound 1 µM): 0.188
relative viability ([22]; first compound 0.01 µM): 1.05
relative viability ([22]; first compound 0.03162 µM): 1.08
relative viability ([22]; first compound 0.1 µM): 1.25
relative viability ([22]; first compound 0.3162 µM): 1.04
relative viability ([22]; first compound 1 µM): 0.94
